Measurements from the supplement of paper PMC10307832.

Legend:
Test in all cases: relative viability (nuclei count vs DMSO), 5 days (fraction); higher = more cells survive
[1] = compound: CC(C)N(CCCNC(=O)Nc1ccc(C(C)(C)C)cc1)C[C@H]1O[C@@H](n2ccc3c(N)ncnc32)[C@H](O)[C@@H]1O + CC(=O)Nc1cccc(-n2c(=O)n(C3CC3)c(=O)c3c(Nc4ccc(I)cc4F)n(C)c(=O)c(C)c32)c1 [Trametinib] (partner 0.02 µM)
How it was run: (§1)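 Lung cancer cell lines were seeded in 1536-well plates and dosed by pin tool the next day, with either a single drug or a fixed anchor-drug dose combined with five library-drug doses (not always all listed) spaced in √10 steps. Five days later, one step fixed the cells and stained their nuclei (final 0.05% Triton X-100, 1% formaldehyde, 1 ug/ml Hoechst), and nuclei were counted on 4× images. Relative viability is the nuclei count in treated wells divided by the count in vehicle wells, and each value is the median of duplicate plates.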

Shikonin + Phenformin = compound: CC(C)=CC[C@@H](O)C1=CC(=O)c2c(O)ccc(O)c2C1=O [Shikonin] + N=C(N)NC(=N)NCCc1ccccc1 [Phenformin] (partner 250 µM)
How it was run: as §1

[2] = compound: CC(C)N(CCCNC(=O)Nc1ccc(C(C)(C)C)cc1)C[C@H]1O[C@@H](n2ccc3c(N)ncnc32)[C@H](O)[C@@H]1O + O=C(CCCCCCC(=O)Nc1ccccc1)NO [Vorinostat] (partner 1 µM)
How it was run: as §1

[3] = compound: CC(C)N(CCCNC(=O)Nc1ccc(C(C)(C)C)cc1)C[C@H]1O[C@@H](n2ccc3c(N)ncnc32)[C@H](O)[C@@H]1O + CS(=O)(=O)N1CCN(Cc2cc3nc(-c4cccc5[nH]ncc45)nc(N4CCOCC4)c3s2)CC1 [Pictilisib] (partner 1 µM)
How it was run: as §1

Cell Line	relative viability ([1]; first compound 0.08 µM)	relative viability ([1]; first compound 0.253 µM)	relative viability ([1]; first compound 0.8 µM)	relative viability ([1]; first compound 2.53 µM)	relative viability ([1]; first compound 8 µM)	relative viability (Shikonin + Phenformin; first compound 0.01 µM)	relative viability (Shikonin + Phenformin; first compound 0.1 µM)	relative viability (Shikonin + Phenformin; first compound 0.3162 µM)	relative viability (Shikonin + Phenformin; first compound 1 µM)	relative viability ([2]; first compound 0.08 µM)	relative viability ([2]; first compound 0.253 µM)	relative viability ([2]; first compound 0.8 µM)	relative viability ([2]; first compound 2.53 µM)	relative viability ([2]; first compound 8 µM)	relative viability ([3]; first compound 0.08 µM)	relative viability ([3]; first compound 0.253 µM)	relative viability ([3]; first compound 0.8 µM)	relative viability ([3]; first compound 2.53 µM)	relative viability ([3]; first compound 8 µM)
HCC-366	0.264	0.36	0.325	0.344	0.287	0.62	0.644	0.663	0.597	0.439	0.303	0.182	0.357	0.291	0.128	0.157	0.117	0.181	0.194
HCC-827	0.499	0.473	0.572	0.537	0.505	0.438	0.404	0.42	0.373	0.862	0.903	0.579	0.902	0.875	0.951	1.1	0.886	1.07	0.9
HOP-62	0.349	0.432	0.316	0.347	0.38	0.762	0.694	0.744	0.723	0.711	0.555	0.445	0.58	0.458	0.723	0.413	0.655	0.776	0.342
IA-LM										0.88	0.761	0.909	0.968	0.96	0.27	0.347	0.447	0.398	0.378
LC-2-ad	0.848	0.936	0.895	0.917	0.855	0.553	0.643	0.592	0.667	0.666	0.784	0.55	0.722	0.671	0.612	0.518	0.413	0.511	0.427
LCLC-97TM1	0.179	0.202	0.184	0.193	0.187	0.495	0.449	0.437	0.472	0.893	0.656	0.801	0.661	0.831	0.184		0.147	0.202	0.178
LCLC-103H	0.679	0.708	0.662	0.653	0.679	0.372	0.335	0.341	0.34	0.717	0.692	0.585	0.701	0.748	0.639	0.522	0.703	0.551	0.716
LK-2	0.879	0.493	0.681	0.636	0.694	0.434	0.496	0.442	0.466	0.325	0.282	0.391	0.315	0.213	0.56	0.532	0.651	0.644	0.609
LOU-NH91	0.788	0.768		0.824	0.763	0.685	0.755	0.754	0.715	0.9	0.832		0.943	0.869	0.537	0.527		0.556	0.545
